Source: patent US10897891B2, “Compositions and methods for prolonged cell storage” (Board of Regents, The University of Texas System, priority 2015, dated 2021)

Tested on: platelets
Assay: Microscopic platelet degranulation at 5° C. with cryoprotective agents
Format: cell-based, human
Design: key to effect on microscopic degranulation, 0.75% / effect on microscopic degranulation, 0.38% / effect on microscopic degranulation, 3% / effect on microscopic degranulation, 1.5% / effect of cryoprotective on platelet degranulation, 3% / effect of cryoprotective on platelet degranulation, 1.5% / effect of cryoprotective on platelet degranulation, 0.75% / effect of cryoprotective on platelet degranulation, 0.38%: none: None = no effect detected ~90% complete degranulation; fair: Fair = 25 to 50% of platelets are non-degranulated; good: Good = >80 are non-degranulated
Conditions: for effect of cryoprotective on platelet degranulation, 0.38% / effect on microscopic degranulation, 0.38%: 0.38% final in ACD-Platelet mixture; for effect of cryoprotective on platelet degranulation, 0.75% / effect on microscopic degranulation, 0.75%: 0.75% final in ACD-Platelet mixture; for effect of cryoprotective on platelet degranulation, 1.5% / effect on microscopic degranulation, 1.5%: 1.5% final in ACD-Platelet mixture; for effect of cryoprotective on platelet degranulation, 3% / effect on microscopic degranulation, 3%: 3% final in ACD-Platelet mixture; for platelet colour / granule preservation: 5° C.
Method: Platelet aggregation using epinephrine. Ten ml of 24 hr old platelet residual was derived from one platelet unit and split into two 5 ml aliquots in 50 ml tubes. One sample received 10% phosphate buffered saline (PBS) and one 10% PBS containing PEG400 such that the final PEG concentration was 2%. These samples were placed on a flat-bed rotator with a 1 inch stroke, at 70 cycles per min, at 5° C. for 7 days. 100 ul of these platelet suspensions were added to wells of a 96 well U bottom plate. Epinephrine 0.1 mg/ml (Pharmaceutical NDC 0409-4921-34-44-048-DK) was diluted with PBS and 100 ul was added to test wells to give a finial concentration of 10 mcg/ml. The plate was rotated overnight to allow aggregation. The extent of aggregation was read using an ELISA plate reader (Molecular Devises, Vmax) at 690 nm wavelength. Platelets, with and without PEG, were also aggregated by the addition of 10% H2O2. Hydrogen peroxide is not an agonist for the platelet receptor; however exposure to hydrogen peroxide mimics the platelet storage lesion though membrane ageing. In this study, the inventors tested 2 day old residual platelets form one donor unit by splitting the material in to a 24 well cluster plate. Control platelets had 10% PBS added and were compared to test compositions with the addition of 10% volume PBS plus 2% PEG-400. 10% v/v (Hydrogen peroxide 3%) was then added to all wells simultaneously using a multichannel pipette. Wells were photographed following 1 hr room temperature incubation (see FIGS. 2A-B and FIG. 3). Table 3 presents additional cryoprotective agents scored for the effect on microscopic degranulation (20× high contrast lighting as above).
The following methods were used: “Fresh” in-date 2 day old blood bank O pos random donor platelets were recovered from segments and held in a 50 cc tub with rotation 22° C., 70 cycles/min 1 inch stroke) for 30 min. Glycerol (Fisher tissue grade product) was obtained from virology diluted to 50% in sterile saline and filter sterilized. 12 g glycerol were added to 12 ml sterile saline (BioMeriux—vitek saline) and mixed. This mixture was filter sterilized using a 0.45 um filter (CELLULOSE ACETATE). Dilutions were made of the above saline to a concentration 50%, 25%, 12%, 6%, […]. 200 ul of platelets were withdrawn slowly (8 sec) and add slowly to 7 sterile 2 ml microcentrifuge tubes. 200 ul of 50%, 25%, 12% 6%, and 3% glycerol/saline and two controls using 200 ul saline, were then added to the platelets with slow mixing. Thus the final glycerol concentrations=25, 12, 6, 3, and 1.5. These aliquots were allowed to rotate at room temp as above for 5 min and then placed on a rotator at 70 cycles/min with a 1 inch stroke at 5° C. (temp previously equilibrated and documented at 5° C.)
At day 3, dark dense platelets were observed, indicating degranulation in the control groups (in both control groups A & B). A variation in platelet size was observed: small and dense indicating degranulation, vs. normal morphology pale plump platelets without the dense small degranulated appearance. Degranulation in response to cold storage is associated with the first step of the platelet activation GP-1 signal resulting in α-granule degranulation and massive extracellular release of vWF. (Suhasini el al., 2010). Table 4 presents a summary of additional cryoprotective agents scored for the effect on microscopic degranulation (20× high contrast lighting as above).

[1] = 6% final in ACD-Platelet mixture, 10 days at 5° C.

pentaerythritol propoxylate
effect of cryoprotective on platelet degranulation, 0.38% (6 days at 5° C.): fair (Fair = 25 to 50% of platelets are non-degranulated) | effect on microscopic degranulation, 0.38% (6 days at 5° C.): fair (Fair = 25 to 50% of platelets are non-degranulated) | effect of cryoprotective on platelet degranulation, 0.75% (6 days at 5° C.): none | effect on microscopic degranulation, 0.75% (6 days at 5° C.): none | effect of cryoprotective on platelet degranulation, 1.5% (6 days at 5° C.): none | effect on microscopic degranulation, 1.5% (6 days at 5° C.): none | effect of cryoprotective on platelet degranulation, 3% (6 days at 5° C.): none | effect on microscopic degranulation, 3% (6 days at 5° C.): none

OCC(O)CO [Glycerol]
5° C. induced degranulation (3% and 6% glycerol, at 3, 6, and 10 days): prevented 5 °C induced degranulation | effect of cryoprotective on platelet degranulation, 3% (10 days at 5° C.): fair (Fair = 25 to 50% of platelets are non-degranulated) | effect on microscopic degranulation, 3% (10 days at 5° C.): fair (Fair = 25 to 50% of platelets are non-degranulated) | platelet colour / granule preservation (3% glycerol or 6% glycerol, day 10): light color of platelets was observed, indicating granule preservation | platelet colour / granule preservation (3% glycerol, day 3): light color of platelets was observed, indicating granule preservation | platelet colour / granule preservation (3% glycerol, day 6): light color of platelets was observed, indicating granule preservation | effect of cryoprotective on platelet degranulation, 6% [1]: good (Good = >80 are non-degranulated) | effect on microscopic degranulation, 6% [1]: good (Good = >80 are non-degranulated)

trimethylolpropane ethoxylate [Trimethylopropane ethoxylate]
effect of cryoprotective on platelet degranulation, 0.38% (6 days at 5° C.): none | effect on microscopic degranulation, 0.38% (6 days at 5° C.): none | effect of cryoprotective on platelet degranulation, 0.75% (6 days at 5° C.): none | effect on microscopic degranulation, 0.75% (6 days at 5° C.): none | effect of cryoprotective on platelet degranulation, 1.5% (6 days at 5° C.): none | effect on microscopic degranulation, 1.5% (6 days at 5° C.): none | effect of cryoprotective on platelet degranulation, 3% (6 days at 5° C.): none | effect on microscopic degranulation, 3% (6 days at 5° C.): none

glycerol propoxylate
effect of cryoprotective on platelet degranulation, 0.38% (6 days at 5° C.): none | effect on microscopic degranulation, 0.38% (6 days at 5° C.): none | effect of cryoprotective on platelet degranulation, 0.75% (6 days at 5° C.): fair (Fair = 25 to 50% of platelets are non-degranulated) | effect on microscopic degranulation, 0.75% (6 days at 5° C.): fair (Fair = 25 to 50% of platelets are non-degranulated) | effect of cryoprotective on platelet degranulation, 1.5% (6 days at 5° C.): fair (Fair = 25 to 50% of platelets are non-degranulated) | effect on microscopic degranulation, 1.5% (6 days at 5° C.): fair (Fair = 25 to 50% of platelets are non-degranulated) | effect of cryoprotective on platelet degranulation, 3% (6 days at 5° C.): none | effect on microscopic degranulation, 3% (6 days at 5° C.): none

Methoxy PEG
effect of cryoprotective on platelet degranulation, 0.38% (6 days at 5° C.): none | effect on microscopic degranulation, 0.38% (6 days at 5° C.): none | effect of cryoprotective on platelet degranulation, 0.75% (6 days at 5° C.): none | effect on microscopic degranulation, 0.75% (6 days at 5° C.): none | effect of cryoprotective on platelet degranulation, 1.5% (6 days at 5° C.): good (Good = >80 are non-degranulated) | effect on microscopic degranulation, 1.5% (6 days at 5° C.): good (Good = >80 are non-degranulated) | effect of cryoprotective on platelet degranulation, 3% (6 days at 5° C.): good (Good = >80 are non-degranulated) | effect on microscopic degranulation, 3% (6 days at 5° C.): good (Good = >80 are non-degranulated)

pentaerythritol ethoxylate
effect of cryoprotective on platelet degranulation, 0.38% (6 days at 5° C.): none | effect on microscopic degranulation, 0.38% (6 days at 5° C.): none | effect of cryoprotective on platelet degranulation, 0.75% (6 days at 5° C.): none | effect on microscopic degranulation, 0.75% (6 days at 5° C.): none | effect of cryoprotective on platelet degranulation, 1.5% (6 days at 5° C.): none | effect on microscopic degranulation, 1.5% (6 days at 5° C.): none | effect of cryoprotective on platelet degranulation, 3% (6 days at 5° C.): none | effect on microscopic degranulation, 3% (6 days at 5° C.): none
